Source: patent US6828462B2, “Unsaturated 1-amino-alkylcyclohexane NMDA, 5HT3, and neuronal nicotinic receptor antagonists” (Merz Pharma GmbH & Co. KGAA, priority 2001, dated 2004)
Like-named read-outs stand apart in the source and are kept apart here.

Legend:
[1] = tested on: maximal electroshock (MES) tonic convulsions; test: Maximal electroshock (MES) test, anticonvulsive activity; type: in vivo, mice; conditions: for ED50: Mus musculus, ip, read-out: MES ED50
Protocol: (§1) NMR female mice (18-28 g) housed 5 per cage were used for the maximal electroshock (MES) and motor impairment tests. All animals were kept with water and food ad libitum under a 12 hour light-dark cycle (light on at 6 a.m.) and at a controlled temperature (20±0.5C). All experiments were performed between 10 a.m. and 5 p.m. Tested agents were injected 30 min. i.p. before the induction of convulsions if not stated otherwise (see below). All compounds were dissolved in 0.9% saline.
(§2) The MES test was performed together with tests for myorelaxant action (traction reflex) and motor coordination (rotarod). For the traction reflex test mice were placed with their forepaws on a horizontal rod and were required to place all 4 paws on the wire within 10 seconds. To test ataxia (motor coordination) mice were placed on an accelerating rotarod and were required to remain on the rod for 1 minute. […] These tests were followed by MES (100 Hz, 0.5 second shock duration, 50 mA shock intensity, 0.9 ms impulse duration, Ugo Basile) applied through corneal electrodes. The presence of tonic convulsions was scored (tonic extension of hind paws with minimum angle to the body of 90). The aim was to obtain ED50s for all parameters scored (anticonvulsive activity and motor side effects) with use of the Litchfield Wilcoxon test for quantal dose responses. Division of the ED50 for side effects (ataxia or myorelaxation) by the ED50 for antagonism of electroshock convulsions was used as a therapeutic index (TI).
(§3) 4-7 doses of antagonists were tested in each of the in vivo tests (5-8 animals per dose) to allow calculation of graded ED50s according to probit analysis (Litchfield and Wilcoxon) with correction for 0% to 100% effects. ED50s are presented with 95% confidence limits (Cl). Pearson product moment correlation analysis (Sigma Stat, Jandel Scientific) was used to compare in vitro potencies and in vivo anticonvulsant activity.

[2] = molecular target: NMDA receptor ([3H]-(+)-MK-801 site) (Rattus norvegicus, UniProt P35439); test: [3H]-(+)-MK-801 receptor binding, rat cortex membranes
[3] = Traction reflex test, myorelaxant action; type: in vivo, mice; conditions: mouse, in vivo, ip; NMR female mice, i.p., traction reflex; read-out: Myorelaxation ED50
Protocol: as §1, §2, §3

NMDA receptors = molecular target: T1, NMDA receptors (Rattus norvegicus, UniProt P35439); test: Patch clamp, NMDA-induced currents in hippocampal neurones; type: cell-based
T1 construct: Patch clamp recordings were made from these neurones; endogenous in cells; host or cells: primary cultured hippocampal neurones from rat embryos (E20 to E21)

[4] = Accelerating rotarod test, ataxia (motor coordination); type: in vivo, mice; conditions: mouse, in vivo, ip; NMR female mice, accelerating rotarod
Protocol: as §1, §2, §3

[5] = tested on: myorelaxation (traction reflex); test: Traction reflex test, myorelaxant action; type: in vivo, mice; conditions: for Therapeutic index (myorelaxation ED50 / MES ED50): ED50 myorelaxation divided by ED50 MES
Protocol: as §1, §2, §3

ataxia (rotarod) = test: Accelerating rotarod test, ataxia (motor coordination); type: in vivo, mice; conditions: for Therapeutic index (ataxia ED50 / MES ED50): ED50 ataxia divided by ED50 MES
Protocol: as §1, §2, §3

[6] = NMR female mice, i.p. 30 min before convulsions
[7] = Table 1, mean, N=6, read-out: NMDA IC50
[8] = read-out: [^3H]MK-801 Ki, rat cortex membranes, [3H]-(+)-MK-801 5 nM, glycine 10 μM, glutamate 10 μM, mean

Molecule	ED50 [1, 6]	Ki [2]	ED50 at 30 min [3]	IC50 (NMDA receptors; [7])	ED50 at 30 min [4]	Therapeutic index (myorelaxation ED50 / MES ED50) [5]	Therapeutic index (ataxia ED50 / MES ED50) (ataxia (rotarod))	MES ED50 [1, 6]	Ki [2, 8]	Myorelaxation ED50 ([5]; NMR female mice, i.p., traction reflex)	Ataxia ED50 (ataxia (rotarod); NMR female mice, i.p., accelerating rotarod)	ED50 [1]	IC50 (NMDA receptors)
C=C[C@@]1(C)C[C@H](C)C[C@@](C)(N)C1 (relative stereo) [MRZ 2009, cis-3-Vinyl-1,3,trans-5-trimethylcyclohexylamine]	> 50 mg/kg	22.3 µM	> 50 mg/kg	58.2 µM	> 50 mg/kg	–	–	–	–	–	–	–	–
CC1=CC(C)(C)CC(C)(C)C1N.Cl (stereo not shown) [MRZ 2/657, 1-amino-2,4,4,6,6-pentamethyl-cyclohex-2-en Hydrochloride]	> 30 mg/kg	13.4 µM	> 30 mg/kg	–	> 30 mg/kg	–	–	–	–	–	–	–	–
CC(N)C1=CC(C)(C)CC(C)(C)C1 (stereo not shown) [MRZ 2/749, 1-(1-Aminoethyl)-3,3,5,5-tetramethylcyclohex-1-ene]	26.6 mg/kg	10.8 µM	38.6 mg/kg	–	37.1 mg/kg	1.5	1.4	–	–	–	–	–	–
CC1(C)C=C(N)CC(C)(C)C1 [MRZ 2/1005, 1-Amino-3,3,5,5-Tetramethyl-1-cyclohexene]	20.5 mg/kg	13.6 µM	35.7 mg/kg	–	26.8 mg/kg	1.7	1.3	–	–	–	–	–	–
CC1(C)CC(=CCN)CC(C)(C)C1 [MRZ 2/1021, 2-(3,3,5,5-Tetramethylcyclohexylidene)ethanamine]	29.5 mg/kg	2.15 µM	16.5 mg/kg	0.33 µM	23.1 mg/kg	0.6	0.8	–	–	–	–	–	–
CC1=CC(N)CC(C)(C)C1 (stereo not shown) [MRZ 2/1023, 1-Amino-3,3,5-trimethyl-2-cyclohexene]	–	–	–	–	–	–	–	>50	49.6 µM	>50	>50	–	–
CC1=CC(C)(N)CC(C)(C)C1 (stereo not shown) [MRZ 2002, 1,3,5,5-Tetramethyl-2-cyclohexen-1-amine]	–	5.7 µM	34 mg/kg	–	53 mg/kg	1.3	2.0	–	–	–	–	26.1 mg/kg	–
C=CCC1(N)CC(C)(C)CC(C)(C)C1 [MRZ 2005, 1-Allyl-3,3,5,5-tetramethylcyclohexanamine]	37.3 mg/kg	9.35 µM	39.8 mg/kg	12.6 µM	49.3 mg/kg	1.1	1.3	–	–	–	–	–	–
CC(N)C=C1CC(C)(C)CC(C)(C)C1 (stereo not shown) [MRZ 2006, 1-(3,3,5,5-Tetramethylcyclohexylidene)-2-propanamine]	57 mg/kg	10.1 µM	44.6 mg/kg	–	40.9 mg/kg	0.8	0.7	–	–	–	–	–	–
CCC1(CC)CC(=CC(C)N)CC(C)(C)C1 (stereo not shown) [MRZ 2008, 1-(3,3-Diethyl-5,5-dimethylcyclohexylidene)-2-propanamine]	–	8.07 µM	–	2.74 µM	–	–	–	–	–	–	–	–	–
CC(C)(N)CC1=CC(C)(C)CC(C)(C)C1 [MRZ 2010, 2-Methyl-1-(3,3,5,5-tetramethyl-1-cyclohexen-1-yl)-2-propanamine]	–	44.9 µM	> 50 mg/kg	–	> 50 mg/kg	–	–	–	–	–	–	> 50 mg/kg	–
C=CCC1(N2CCCCC2)CC(C)(C)CC(C)(C)C1 [MRZ 2013, 1-(1-Allyl-3,3,5,5-tetramethylcyclohexyl)piperidine]	–	49.2 µM	> 50 mg/kg	–	> 50 mg/kg	–	–	–	–	–	–	> 50 mg/kg	–
C=CC1(CCN)CC(C)(C)CC(C)(C)C1 [MRZ 2014, 2-(1-Vinyl-3,3,5,5-tetramethylcyclohexyl-1)ethylamine]	47.8 mg/kg	3.12 µM	13.9 mg/kg	0.1 µM	25.8 mg/kg	0.3	0.5	–	–	–	–	–	–
CC(C)=CCC1(N2CCCCC2)CC(C)(C)CC(C)(C)C1 [MRZ 2015, 1-[3,3,5,5-Tetramethyl-1-(3-methyl-2-butenyl)cyclohexyl]piperidine]	–	83 µM	> 50 mg/kg	–	> 50 mg/kg	–	–	–	–	–	–	> 50 mg/kg	–
C#CCC1(N2CCCCC2)CC(C)(C)CC(C)(C)C1 [MRZ 2016, 1-[3,3,5,5-Tetramethyl-1-(2-propynyl)cyclohexyl]piperidine]	–	42.2 µM	> 50 mg/kg	71.2 µM	> 50 mg/kg	–	–	–	–	–	–	> 50 mg/kg	–
C=CCC(CN)C1(C)CC(C)(C)CC(C)(C)C1 (stereo not shown) [MRZ 2017, 2-(1,3,3,5,5-Pentamethylcyclohexyl)-4-pentenylamine]	36.9 mg/kg	6.79 µM	35.6 mg/kg	1.19 µM	33.7 mg/kg	1.0	0.9	–	–	–	–	–	–
CC1(C)CC(=CCCN)CC(C)(C)C1 [MRZ 2018, 3-(3,3,5,5-Tetramethylcyclohexylidene)propanamine]	78.5 mg/kg	20.2 µM	29.4 mg/kg	37.1 µM	26.7 mg/kg	0.4	0.3	–	–	–	–	–	–
CC(C)(N)C=C1CC(C)(C)CC(C)(C)C1 [MRZ 2019, 2-Methyl-1-(3,3,5,5-tetramethylcyclohexylidene)-2-propanamine]	–	73.1 µM	> 50 mg/kg	–	> 50 mg/kg	–	–	–	–	–	–	> 50 mg/kg	–
CC(CN)=C1CC(C)(C)CC(C)(C)C1 [MRZ 2020, 2-(3,3,5,5-Tetramethylcyclohexylidene)propanamine]	26.1 mg/kg	7.45 µM	34.5 mg/kg	–	27.6 mg/kg	1.3	1.1	–	–	–	–	–	–
C=CC1(NC)CC(C)(C)CC(C)(C)C1 [MRZ 2021, N-Methyl-1-ethenyl-3,3,5,5-tetramethylcyclohexylamine]	–	6.54 µM	21.4 mg/kg	–	24.7 mg/kg	1.6	1.8	–	–	–	–	13.6 mg/kg	12.7 µM
C=CCNC1(C)CC(C)(C)CC(C)(C)C1 [MRZ 2026, N-Allyl-1,3,3,5,5-pentamethylcyclohexanamine]	25.4 mg/kg	–	26.7 mg/kg	29.6 µM	37.6 mg/kg	1.1	1.5	–	–	–	–	–	–
Neramexane Sulphate [MRZ 2000, reference compound]	–	–	–	–	–	–	–	–	1.68 µM	–	–	–	–
